A short description of series [1]: Effects of A10 on mortality (mice implanted with C6 cells). It counts as in vivo, mouse. Conditions: mouse, in vivo, ip. How it is done: (§1) Cell lines were grown in appropriate medium (see Appendix 1). Cells were harvested at or near confluency with 0.05% Trypsin-EDTA and pelleted at 450×g for 10 min. Pellets were resuspended in sterile PBS or media (without FBS) to a particular concentration and the cells were implanted into the hindflank of mice. Tumor growth was measured over 3 to 6 weeks using venier calipers. Tumor volumes were calculated as a product of length×width×height unless otherwise indicated. P values were calculated using the Students' t-test.

The test system of series [2] is mice implanted with C6 cells. The description is as above. It counts as in vivo, mouse. Here is the method:
as §1

Another series concerns C6 cells. In words: Intracerebral C6 tumor, athymic rats, survival. It counts as in vivo, rat. The conditions noted are these: IC C6, athymic rats. How it is done:
FIG. 5. In two separate experiments, C6 cells (5×10^4 cells in 20 μL [Expt #1] or 5 μL [Expt #2]) were implanted into the cerebrum of athymic rats. […] V=vehicle control. n=7 to 8 animals per group. * P=0.0002; ** P=0.0003 compared to vehicle control.
For the rat IC model, rats (Wistar, Sprague Dawley, Fisher 344, or athymic R/Nu; approximately 200 g) were anesthetized by an IP injection of 100 mg/kg Ketaset (ketamine hydrochloride; Aveco, Fort Dodge, Iowa) and 5 mg/kg Rompun (xylazine, 2% solution; Bayer, Germany). After onset of anesthesia, the scalp was shaved and the animal was oriented in a stereotaxic apparatus (Stoelting, Wood Dale, Ill.). The skin at the incision site was cleaned 3 times with alternating swabs of 70% ethanol and 10% Povidone-Iodine. A median 1.0-1.5 cm incision was made in the scalp using a sterile surgical blade. The skin was detached slightly and pulled to the sides to expose the sutures on the skull surface. A dental drill (Stoelting, Wood Dale, Ill.) was used to make a small (1-2 mm diameter) burrhole in the skull approximately 1 mm anterior and 2 mm lateral to the bregma. The cell suspension was drawn into a 50 μL Hamilton syringe fitted with a 23 or 25 ga standard bevel needle. […]

Series [3] relates to glioblastoma multiformae (GBM) primary tumor cells. The series can be described thus: Growth of primary tumor cells from glioblastoma patients. It counts as cell-based, human. How it is done:
Viable tumors were placed into medium by the pathologist at the referring institution immediately after surgery, and shipped to Oncotech by overnight delivery. As soon as a tumor was received, a portion was fixed in formalin for sectioning and the remainder trimmed of necrotic, connective and adipose tissues. All tumor manipulations were performed aseptically. The remaining tumor was placed into a Petri dish containing 5 mL of medium (RPMI 1640 supplemented with 10% FBS, 100 IU/mL penicillin, […] streptomycin and L-glutamine) and disaggregated mechanically with scissors into pieces 2 mm or smaller. […]
After enzymatic dispersion into a near single-cell suspension, tumor cells were filtered through nylon mesh, washed in medium, suspended in soft agarose (0.12%) and plated at approximately 20,000 cells per well onto an agarose underlayer (0.4%) in 24-well plates. […] After the appropriate labeling period, tissue culture plates were heated at 60° C. to melt the agarose, the cells harvested with a micro-harvester onto glass fiber filters and the radioactivity determined. Percent inhibition (PCI) was determined using the formula: PCI=1-(CPM treatment group […] CPM control group). Determinations of control group proliferation were performed in quadruplicate, while treatment group proliferation was determined in triplicate. […]

Another series relates to PC-3 prostate tumor. In words: SC xenograft in mice. It counts as in vivo, human. The conditions noted are these: SCID. Here is the method: as §1
(§2) The mice were treated for three week.

A further series relates to A375 melanoma. The series can be described thus: SC xenograft in mice. It counts as in vivo, human. How it is done:
as §1, §2

A short description of the next series: in vivo. On the set-up: species or system rat. Here is the method:
Plasma was prepared and frozen in liquid nitrogen. Tissues and organs were resected and immediately frozen in liquid nitrogen. After the addition of an internal standard, plasma samples were acidified with HCl and extracted with acetonitrile. The acetonitrile fraction was evaporated to dryness in a vacuum centrifuge with heating and redissolved in methanol. Tissue and organ samples were homogenized according to the weight ratio of 1:5 (w:v) in 50 mM Tris-HCl, pH 7.4, at 20,000 rev/min, using a tissue homogenizer (Brinkmann Polytron Model PT3000). After the addition of an internal standard, the homogenate was acidified with HCl and then extracted with acetonitrile. The acetonitrile fraction was then extracted with an equal volume of diethyl ether. The ether fraction was evaporated to dryness in a vacuum centrifuge with heating and redissolved in methanol.
Samples for HPLC analysis were injected onto a Hewlett Packard Hypersil 5-μm C18 cartridge column (100×4.6 mm). The mobile phase was methanol:35 mM KH2 PO4 (pH 4.5) 55:45 containing 4 mM triethylamine. The flow rate was 1.2 mL/min. The compounds were monitored by UV absorption at 254 nm using a Hewlett-Packard diode-array detector (HP Model 1090). Plasma and tissue concentrations were determined from standard curves using peak area for quantitation. […] The internal standard used was 5-methyl-pyrazole-4-carboxylic acid-(4-trifluoromethyl)-anilide.
Table XXII. […] Plasma and brain samples were prepared and analyzed by HPLC as described in Appendix 6. All results were calculated by the method of internal standardization. NT= not tested, ND= not detected.

Experimental findings from patent publication US6331555A, “Treatment of platelet derived growth factor related disorders such as cancers” (priority 1999, dated 2001) are described below.

For `Cc1oncc1C(=O)Nc1ccc(C(F)(F)F)cc1` [Compound A10, 5-methylisoxazole-4 carboxylic acid-(4-trifluromethyl)-anilide], the mortality (commonly the share of the test organisms that died) was found to be 0% in series [1] (25 mg/kg/day (PBTE:D5W), 67 treatments, n 8); 50% in series [1] (30 mg/kg/day (PBTE), 48 treatments, n 4); 75% in series [1] (40 mg/kg/day (PBTE), 48 treatments, n 4); 54% in series [2] (20 mg/kg/day (DMSO), 21 treatments, n 26); 8% in series [2] (20 mg/kg/day (PBTE), 20-48 treatments, n 12). Moreover, the “mortality rate by formulation” value in series [2] (PBTE:D5W compared to DMSO and PBTE) was “significantly reduced the mortality rate compared to DMSO formulations, and PBTE formulations”. Further, in the series with C6 cells, the survival result was “slight but significant positive effect on the survival”. For the same molecule, the tumor cell growth result in series [3] (0 to 400 mM) was “tumor cell growth decreased for both types of tumors”. Moreover, in series [3] (Homo sapiens, range over six patients, read-out: IC50, GBM tumors), the IC50 (usually the concentration at which inhibition is half-maximal) is 39 to 198 µM. In addition, the tumor growth inhibition entry in the series on PC-3 prostate tumor (12 mg/kg/day (PBTE:D5W), five days per week, from day 15, after three weeks) is reported as “about 50%”; in the series on A375 melanoma (15 mg/kg/day, five days per week, from day 9, after three weeks) it was “about 40%”. The % Inhibition (as a rule, the relative decrease from the control value, in per cent) in the series on PC-3 prostate tumor (12 mg/kg/day, day 36, treatment from day 15) is 47%; in the series on A375 melanoma (SCID, 15 mg/kg/day, day 31, treatment from day 9) it was 35%; in the series on A375 melanoma (nu/nu, 20 mg/kg/day, day 31), 53%. Also, the “time detected in plasma” value in the series “in vivo” (IP A10 80 mg/kg single dose) was “up to 8 hr”. For the same molecule, the “time by which A10 converted to B11” value in the series “in vivo” (IP A10 80 mg/kg, first time point analyzed) is at most 2 h. Moreover, the Cmax (in general, the highest concentration seen after dosing) in the series “in vivo” (rat, plasma, ip, 80 mg/kg) came to 5000 ng/mL.
